# Measured values taken from US7728131B2, “Amide derivative and medicine” (Nippon Shinyaku Co., Ltd., priority 2003, dated 2010).
# Where a name gives a salt, the structure may show the parent alone. Read-outs that look alike come from different tables or passages of the source.
# What was measured:
# [1] = tested on: K562 cells; experiment: Cell growth inhibitory effect, K562 cells (Cell counting Kit-8, 72 hours); conditions: for IC50: Homo sapiens, K562, 72 h, read-out: K562 cells (IC50 value: μM); for Ratio (U937 cells/K562 cells): IC50 U937 cells / IC50 K562 cells;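 as to all read-outs here: Read-out is formazan absorbance at 450 nm from WST-8 reduction after a 3 h color reaction, with K562 and U937 cells grown in 96-well plates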
# Protocol: of Cell counting Kit-8 (5 mmol/l WST-8, 0.2 mmol/1 1-Methoxy PMS, 150 mmol/l NaCl) (manufactured by Dojindo) was added to each well. After reaction for color development in a CO2 incubator for 3 hours, an absorbance of formazan, generated by reduction of WST-8 was determined at 450 nm using Multi-level counter ARVOsx (manufactured by Wallac).
# K562 cells and U937 cells (purchased from American Type Culture Collection) were cultured in a RPMI-1640 medium (manufactured by Sigma) containing 10% (v/v) fetal calf serum (FCS) (manufactures by Sigma) (RPMI-1640/FCS). K562 cells and U937 cells were seeded at a density of 5000 cells/100 μl/well and 4000 cells/100 μl/well in each of 96-hole-plate (manufactured by costar), respectively. The plate was incubated in a CO2 incubator overnight. […] The resulting solution was diluted 500 times in a RPMI-1640/FCS medium and then 100 μl of the diluent was added in a well. The plate was incubated in a CO2 incubator. After 72 hours, 20 μl
# [2] = tested on: U937 cells; experiment: Cell growth inhibitory effect, U937 cells (Cell counting Kit-8, 72 hours); assay type: cell-based; conditions: Homo sapiens, U-937, BCR-ABL negative U937 cells, WST-8 absorbance
# Protocol: The plate was incubated in a CO2 incubator overnight. […] The plate was incubated in a CO2 incubator. After 72 hours, 20 μl
# [3] = continuation of Table 3, read-out: U937 cells (IC50 value: nμM)
SMILES,IC50 [1],Ratio (U937 cells/K562 cells) [1],"IC50 [2, 3]",melting point,IC50 ([2]; read-out: U937 cells (IC50 value: μM))
"Cc1ccc(NC(=O)c2ccc(CN3CCN[C@@H](C)C3)c(C(F)(F)F)c2)cc1Nc1nccc(-c2cncnc2)n1.Cl [Example 55, 4-((S)-3-methylpiperazin-1-ylmethyl)-3-trifluoromethyl-N-{4-methyl-3-[4-(5-pyrimidinyl)pyrimidin-2-ylamino]phenyl}benzamide]",0.0022 µM,4545,10 µM,,
"Cc1ccc(NC(=O)c2ccc(CN3CC[C@H](CN(C)C)C3)c(C(F)(F)F)c2)cc1Nc1nccc(-c2cncnc2)n1.Cl [Example 79, 4-[(R)-3-(dimethylaminomethyl)pyrrolidin-1-ylmethyl]-3-trifluoromethyl-N-{4-methyl-3-[4-(5-pyrimidinyl)pyrimidin-2-ylamino]phenyl}benzamide hydrochloride]",0.0059 µM,4348,20 µM,114 to 122 °C (dec.),
"Cc1ccc(NC(=O)c2ccc(CN3CCNC(C(N)=O)C3)c(C(F)(F)F)c2)cc1Nc1nccc(-c2cncnc2)n1.Cl (stereo not drawn) [Example 45, 4-(3-carbamoylpiperazin-1-ylmethyl)-3-trifluoromethyl-N-{4-methyl-3-[4-(5-pyrimidinyl)pyrimidin-2-ylamino]phenyl}benzamide hydrochloride]",0.0031 µM,4839,15 µM,205 to 208 °C,
"Cc1ccc(NC(=O)c2ccc(CN3CCN(C)[C@H](C)C3)c(C(F)(F)F)c2)cc1Nc1nccc(-c2cncnc2)n1.Cl [Example 71, (+)-4-((R)-3,4-dimethylpiperazin-1-ylmethyl)-3-trifluoromethyl-N-{4-methyl-3-[4-(5-pyrimidinyl)pyrimidin-2-ylamino]phenyl}benzamide hydrochloride]",0.0061 µM,1098,6.7 µM,186 to 194 °C,
"Cc1ccc(NC(=O)c2ccc(CN3CC[C@@H](N(C)C)C3)c(C(F)(F)F)c2)cc1Nc1nccc(-c2cncnc2)n1.Cl [Example 38, (+)-4-[(R)-3-(dimethylamino)pyrrolidin-1-ylmethyl]-3-trifluoromethyl-N-{4-methyl-3-[4-(5-pyrimidinyl)pyrimidin-2-ylamino]phenyl}benzamide hydrochloride]",0.0019 µM,4684,8.9 µM,,
"Cc1ccc(NC(=O)c2ccc(CN3CCNCC3)c(C(F)(F)F)c2)cc1Nc1cc(-c2cccnc2)ccn1.Cl [Example 42, 4-(1-piperazinylmethyl)-3-trifluoromethyl-N-{4-methyl-3-[4-(3-pyridyl)pyridin-2-ylamino]phenyl}benzamide hydrochloride]",0.0068 µM,206,1.4 µM,190 to 195 °C (dec.),
"Cc1ccc(NC(=O)c2ccc(CN3CCN(CCO)CC3)c(C(F)(F)F)c2)cc1Nc1nccc(-c2cncnc2)n1.Cl [Example 37, 4-[4-(2-hydroxyethyl)piperazin-1-ylmethyl]-3-trifluoromethyl-N-{4-methyl-3-[4-(5-pyrimidinyl)pyrimidin-2-ylamino]phenyl}benzamide hydrochloride]",0.0014 µM,7143,10 µM,248 to 255 °C (dec.),
"CN[C@H]1CCN(Cc2ccc(C(=O)Nc3ccc(C)c(Nc4nccc(-c5cncnc5)n4)c3)cc2C(F)(F)F)C1 (as salt: salt) [Example 68, (−)-4-[(S)-3-(methylamino)pyrrolidin-1-ylmethyl]-3-trifluoromethyl-N-{4-methyl-3-[4-(5-pyrimidinyl)pyrimidin-2-ylamino]phenyl}benzamide]",,,,142 to 149 °C (dec.),
"Cc1ccc(NC(=O)c2ccc(CN3CCN[C@H](C)C3)c(C(F)(F)F)c2)cc1Nc1nccc(-c2cncnc2)n1.Cl [Example 56, (+)-4-((R)-3-methylpiperazin-1-ylmethyl)-3-trifluoromethyl-N-{4-methyl-3-[4-(5-pyrimidinyl)pyrimidin-2-ylamino]phenyl}benzamide hydrochloride]",0.0046 µM,957,4.4 µM,254 to 258 °C,
"Cc1ccc(NC(=O)c2ccc(CN3CCN(C)CC3)c(C(F)(F)F)c2)cc1Nc1cc(-c2cccnc2)ccn1 [Example 29, 4-(4-methylpiperazin-1-ylmethyl)-3-trifluoromethyl-N-{4-methyl-3-[4-(3-pyridyl)pyridin-2-ylamino]phenyl}benzamide methanesulfonate]",0.0017 µM,824,1.4 µM,,
"CCc1cc(C(=O)Nc2ccc(C)c(Nc3nccc(-c4cncnc4)n3)c2)ccc1CN1CCN(C)CC1.Cl [Example 4, 3-ethyl-4-(4-methylpiperazin-1-ylmethyl)-N-{4-methyl-3-[4-(5-pyrimidinyl)pyrimidin-2-ylamino]phenyl}benzamide hydrochloride]",0.002 µM,14000,,253 to 255 °C (dec.),28 µM
"CCN1CCN(Cc2ccc(C(=O)Nc3ccc(C)c(Nc4cc(-c5cccnc5)ccn4)c3)cc2C(F)(F)F)CC1.Cl [Example 27, 4-(4-ethylpiperazin-1-ylmethyl)-3-trifluoromethyl-N-{4-methyl-3-[4-(3-pyridyl)pyridin-2-ylamino]phenyl}benzamide hydrochloride]",0.0025 µM,1040,2.6 µM,230 to 235 °C (dec.),
"Cc1ccc(NC(=O)c2ccc(CC3CCN(C)CC3)c(CF)c2)cc1Nc1nccc(-c2cncnc2)n1 [Example 21, 3-fluoromethyl-4-(1-methylpiperidin-4-ylmethyl)-N-{4-methyl-3-[4-(5-pyrimidinyl)pyrimidin-2-ylamino]phenyl}benzamide]",0.0063 µM,6667,42 µM,,
"Cc1ccc(NC(=O)c2ccc(CN3CCN(C)CC3)c(C(F)(F)F)c2)cc1Nc1cc(-c2cccnc2)ccn1 [Example 28, 4-(4-methylpiperazin-1-ylmethyl)-3-trifluoromethyl-N-{4-methyl-3-[4-(3-pyridyl)pyridin-2-ylamino]phenyl}benzamide]",,,,241 to 242 °C (dec.),
"CN[C@H]1CCN(Cc2ccc(C(=O)Nc3ccc(C)c(Nc4nccc(-c5cncnc5)n4)c3)cc2C(F)(F)F)C1 [Example 68, (−)-4-[(S)-3-(methylamino)pyrrolidin-1-ylmethyl]-3-trifluoromethyl-N-{4-methyl-3-[4-(5-pyrimidinyl)pyrimidin-2-ylamino]phenyl}benzamide]",0.0024 µM,2417,5.8 µM,,
"Cc1ccc(NC(=O)c2ccc(CN3CCNCC3)c(C(F)(F)F)c2)cc1Nc1nccc(-c2cncnc2)n1 (as salt: trifluoroacetate) [Example 43, 4-(1-piperazinylmethyl)-3-trifluoromethyl-N-{4-methyl-3-[4-(5-pyrimidinyl)pyrimidin-2-ylamino]phenyl}benzamide trifluoroacetate]",,,,199 to 202 °C (dec.),
"Cc1ccc(NC(=O)c2ccc(CN3CCNCC3)c(C(F)(F)F)c2)cc1Nc1nccc(-c2cncnc2)n1 [Example 43, 4-(1-piperazinylmethyl)-3-trifluoromethyl-N-{4-methyl-3-[4-(5-pyrimidinyl)pyrimidin-2-ylamino]phenyl}benzamide trifluoroacetate]",0.0011 µM,3545,3.9 µM,,
"Cc1ccc(NC(=O)c2ccc(CN3CC[C@H](N(C)C)C3)c(C(F)(F)F)c2)cc1Nc1nccc(-c2cncnc2)n1.Cl [Example 48, (−)-4-[(S)-3-(dimethylamino)pyrrolidin-1-ylmethyl]-3-trifluoromethyl-N-{4-methyl-3-[4-(5-pyrimidinyl)pyrimidin-2-ylamino]phenyl}benzamide hydrochloride]",0.004 µM,3000,12 µM,,
"CO[C@H]1CN(Cc2ccc(C(=O)Nc3ccc(C)c(Nc4nccc(-c5cncnc5)n4)c3)cc2C(F)(F)F)C[C@@H]1N(C)C.Cl [Example 59, 4-[(3S,4S)-3-(dimethylamino)-4-methoxypyrrolidin-1-ylmethyl]-3-trifluoromethyl-N-{4-methyl-3-[4-(5-pyrimidinyl)pyrimidin-2-ylamino]phenyl}benzamide hydrochloride]",0.0081 µM,1605,13 µM,,
"Cc1ccc(NC(=O)c2ccc(CN3CCC[C@H]3CN3CCCC3)c(C(F)(F)F)c2)cc1Nc1nccc(-c2cncnc2)n1.Cl [Example 52, (−)-4-[(S)-2-(1-pyrrolidinylmethyl)pyrrolidin-1-ylmethyl]-3-trifluoromethyl-N-{4-methyl-3-[4-(5-pyrimidinyl)pyrimidin-2-ylamino]phenyl}benzamide hydrochloride]",0.004 µM,975,3.9 µM,,
"Cc1ccc(NC(=O)c2ccc(CN3CC[C@H](N)C3=O)c(C(F)(F)F)c2)cc1Nc1nccc(-c2cncnc2)n1 [Example 46, (−)-4-((S)-3-amino-2-oxopyrrolidin-1-ylmethyl)-3-trifluoromethyl-N-{4-methyl-3-[4-(5-pyrimidinyl)pyrimidin-2-ylamino]phenyl}benzamide]",0.019 µM,1526,29 µM,,
"Cc1ccc(NC(=O)c2ccc(CN3CCN(C)CC3)c(C(F)(F)F)c2)cc1Nc1cc(-c2cccnc2)ccn1 (as salt: methanesulfonate) [Example 29, 4-(4-methylpiperazin-1-ylmethyl)-3-trifluoromethyl-N-{4-methyl-3-[4-(3-pyridyl)pyridin-2-ylamino]phenyl}benzamide methanesulfonate]",,,,189 to 191 °C,
